Source: patent publication US8247437B2, “N-hydroxyamide derivatives and use thereof” (Merck Serono SA, priority 2004, dated 2012)
Read-outs that look alike come from different tables or passages of the source.

Experiments:
Type in all cases: biochemical
gelatinase A (MMP-2) = molecular target: T1, gelatinase A (MMP-2) (Homo sapiens, UniProt P08253); assay: MMP-2 enzyme inhibition assay (coumarin-labelled peptide substrate McaPLGLDpaAR); details: read-out: MMP-2 IC50
T1 sequence (P08253 110-660): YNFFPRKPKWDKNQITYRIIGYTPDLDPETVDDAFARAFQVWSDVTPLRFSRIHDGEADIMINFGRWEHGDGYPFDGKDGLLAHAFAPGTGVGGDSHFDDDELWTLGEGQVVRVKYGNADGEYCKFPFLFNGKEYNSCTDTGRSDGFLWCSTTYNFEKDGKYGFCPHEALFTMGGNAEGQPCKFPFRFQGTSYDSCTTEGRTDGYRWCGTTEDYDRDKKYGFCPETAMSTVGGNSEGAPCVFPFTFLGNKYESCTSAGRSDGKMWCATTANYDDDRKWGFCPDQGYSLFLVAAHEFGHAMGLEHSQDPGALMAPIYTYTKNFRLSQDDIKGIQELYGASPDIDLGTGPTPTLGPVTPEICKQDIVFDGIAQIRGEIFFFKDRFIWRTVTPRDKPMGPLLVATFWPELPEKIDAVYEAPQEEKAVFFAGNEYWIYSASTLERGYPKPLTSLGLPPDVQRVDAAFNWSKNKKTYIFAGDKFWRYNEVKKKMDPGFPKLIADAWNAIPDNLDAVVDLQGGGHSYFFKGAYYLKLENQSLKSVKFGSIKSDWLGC
Protocol: (§1) Stock solutions were made up as follows: Assay Butter: 100 mM Tris-HCl pH 7.6 is containing 100 mM NaCl, 10 mM CaCl2, and 0.05% Brij 35.
(§2) Substrate: 0.4 mM McaPLGLDpaAR (from Bachem) (0.437 mg/ml) stock solution in 100% DMSO (stored at −20° C.). Dilute to 8 μM in assay butter.
(§3) Enzyme: Recombinant human 92 kDa gelatinase (MMP-9; APMA (4-aminophenyl mercuric acetate)-activated if necessary) appropriately diluted in assay butter.
(§4) Test Compounds were prepared initially as 10 mM compound solution in 100% DMSO, diluted to 1 mM in 100% DMSO, then serially diluted 3-fold in 100% DMSO across columns 1-10 of a 96-well microtitre plate Assay concentration range, 100 μM (column 1) to 5.1 nM (column 10).
(§5) The assay was performed in a total volume of 100 μL per well in 96-well microfilm plates. Activated enzyme (20 μL) was added to the wells followed by 20 μL of assay butter. Appropriate concentrations of test compounds dissolved in 10 μL of DMSO were then added followed by 50 μL of McaPLGLDpaAR (8 μM, prepared by dilution of DMSO stock in assay butter). For each as say ten concentrations of test compound were examined in duplicate. Control wells lack either enzyme or test compound. The reactions were incubated at 37° C. for 2 hours. The fluorescence at 405 nm was measured immediately with an SLT Fluostar fluorometer (SL T Labinstruments GmbH, Grödig, Austria) using 320 nm excitation, without stopping the reaction.
(§6) The effect of the test compound was determined from the dose response curve generated by the 10 duplicate concentrations of inhibitor. The IC50 (the concentration of compound required to give a 50% decrease in enzyme activity) was obtained by fitting data to the equation, Y=a+((b−a)/(1+(c/X)^d)). (Y=inhibition achieved for a particular dose; X=the dose in nM; a=minimum y or zero % inhibition; b=maximum y or 100% inhibition; c=is the IC50; d=is the slope). The result was rounded to one significant figure.
(§7) Compounds of the invention were tested for inhibitory activity against gelatinase A (MMP-2) in an assay using a coumarin-labelled peptide substrate, (7-methoxycoumarin-4-yl)acetyl-Pro-Leu-Gly-Leu-(3-[2,4-dinitrophenyl]-L-2,3diaminopropionyl)-Ala-Arg-NH2 (Mca PLGLDpaAR) (Knight et al, 1992, above). The protocol for this assay was as described for the MMP-9 assay above.

collagenase (MMP-1) = molecular target: T2, collagenase (MMP-1) (Homo sapiens, UniProt P03956); assay: MMP-1 enzyme inhibition assay (coumarin-labelled peptide substrate McaPLGLDpaAR); details: read-out: MMP-1 IC50
T2 sequence (P03956 100-469): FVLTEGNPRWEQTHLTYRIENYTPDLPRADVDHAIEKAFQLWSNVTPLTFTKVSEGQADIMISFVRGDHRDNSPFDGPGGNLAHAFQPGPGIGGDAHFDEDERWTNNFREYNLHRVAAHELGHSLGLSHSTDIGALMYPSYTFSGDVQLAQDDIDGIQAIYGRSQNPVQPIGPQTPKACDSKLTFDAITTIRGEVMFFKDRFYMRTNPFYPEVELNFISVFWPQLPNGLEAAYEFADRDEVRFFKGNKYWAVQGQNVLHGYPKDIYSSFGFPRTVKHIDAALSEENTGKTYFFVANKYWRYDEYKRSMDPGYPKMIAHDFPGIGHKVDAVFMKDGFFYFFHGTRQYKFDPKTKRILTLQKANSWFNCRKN
Protocol: as §1, §2, §3, §4, §5, §6
as §7, with “collagenase (MMP-1)” for “gelatinase A (MMP-2)”

metalloelastase (MMP-12) = metalloelastase (MMP-12) (Homo sapiens, UniProt P39900); assay: MMP-12 enzyme inhibition assay (coumarin-labelled peptide substrate McaPLGLDpaAR); details: read-out: MMP-12 IC50
Chain of metalloelastase (MMP-12) (P39900 106-470): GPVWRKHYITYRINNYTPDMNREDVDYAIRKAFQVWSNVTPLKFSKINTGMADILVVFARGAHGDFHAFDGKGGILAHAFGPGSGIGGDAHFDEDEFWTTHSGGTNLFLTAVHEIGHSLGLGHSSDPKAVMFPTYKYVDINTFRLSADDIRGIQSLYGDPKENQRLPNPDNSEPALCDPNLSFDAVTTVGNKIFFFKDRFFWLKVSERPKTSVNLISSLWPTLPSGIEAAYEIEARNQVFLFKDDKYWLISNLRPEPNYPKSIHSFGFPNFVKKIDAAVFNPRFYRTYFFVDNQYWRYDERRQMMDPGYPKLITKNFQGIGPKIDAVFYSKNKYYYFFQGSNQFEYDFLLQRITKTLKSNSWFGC
Protocol: as §1, §2, §3, §4, §5, §6
Compounds of the invention were tested for inhibitory activity against metalloelastase (MMP-12) in an assay using a coumarin-labelled peptide substrate, (7-methoxycoumarin-4-yl)acetyl-Pro-Leu-Gly-Leu-(3-[2,4-dinitrophenyl]-L-2,3-diaminopropionyl)-Ala-Arg-NH2 (McaPLGLDpaAR) (Knight et al, 1992, above). The protocol for this assay was as described for the MMP-9 assay above.

[1] = molecular target: 92 kDa gelatinase (MMP-9) (Homo sapiens, UniProt P14780); assay: MMP-9 enzyme inhibition assay (coumarin-labeled peptide substrate McaPLGLDpaAR); details: read-out: MMP-9 IC50
Chain of 92 kDa gelatinase (MMP-9) (P14780 107-707 limits assumed): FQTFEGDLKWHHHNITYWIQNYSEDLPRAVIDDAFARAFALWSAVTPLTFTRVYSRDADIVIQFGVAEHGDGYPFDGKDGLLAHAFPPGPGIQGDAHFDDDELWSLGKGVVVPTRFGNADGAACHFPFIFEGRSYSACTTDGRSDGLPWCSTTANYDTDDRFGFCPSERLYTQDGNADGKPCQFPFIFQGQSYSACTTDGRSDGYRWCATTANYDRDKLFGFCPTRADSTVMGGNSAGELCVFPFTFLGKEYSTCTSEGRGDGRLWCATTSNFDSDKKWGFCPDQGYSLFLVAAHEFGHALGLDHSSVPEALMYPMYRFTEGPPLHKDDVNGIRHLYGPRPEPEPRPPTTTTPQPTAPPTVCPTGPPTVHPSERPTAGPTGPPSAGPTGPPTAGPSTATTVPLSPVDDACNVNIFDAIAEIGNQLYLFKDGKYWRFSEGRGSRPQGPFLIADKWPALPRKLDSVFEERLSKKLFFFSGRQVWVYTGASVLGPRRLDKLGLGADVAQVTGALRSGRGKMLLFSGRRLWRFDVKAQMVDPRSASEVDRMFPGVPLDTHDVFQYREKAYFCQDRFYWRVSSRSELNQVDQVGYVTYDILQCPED
Protocol: Compounds of the invention were tested for inhibitory activity against 92 kDa gelatinase (MMP-9) in an assay using a coumarin-labeled peptide substrate, (7-methoxycoumarin-4-yl)acetyl-Pro-Leu-Gly-Leu-(3-[2,4-dinitrophenyl]-L-2,3diaminopropionyl)-Ala-Arg-NH2 (McaPLGLDpaAR) (Knight et al, FEBS Lett. 1992; 263-266).
as §1, §2, §3, §4, §5, §6

[2] = Table 1, compounds of Formula (I)
[3] = Table 2, compounds of Formula (VI)

SMILES | IC50 (gelatinase A (MMP-2); [2]) [nM] | IC50 (collagenase (MMP-1); [2]) [nM] | IC50 (metalloelastase (MMP-12); [2]) [nM] | IC50 [1, 2] [nM] | IC50 (gelatinase A (MMP-2); [3]) [nM] | IC50 (collagenase (MMP-1); [3]) [nM] | IC50 (metalloelastase (MMP-12); [3]) [nM] | IC50 [1, 3] [nM]
CCOc1ccc(CCC[C@@H](C(=O)N2CCC(Oc3ccccn3)CC2)[C@H](O)C(=O)NO)cc1 [Example 22] | – | – | – | – | 47 | > 5000 | 17 | 45
C[C@@H]1CN(c2ccc(OC(F)(F)F)cc2)CCN1C(=O)[C@@H](CC1CCCC1)[C@H](O)C(=O)NO [Example 91, (2S,3S)-3-(cyclopentylmethyl)-N,2-dihydroxy-4-{(2R)-2-methyl-4-[4-(trifluoromethoxy)phenyl]piperazin-1-yl}-4-oxobutanamide] | 3 | 1150 | < 1 | 49 | – | – | – | –
CC(C)C[C@H](C(=O)N1CCN(c2noc(-c3ccccc3)n2)CC1)[C@@H](O)C(=O)NO [Example 56, (2R,3S)-N,2-dihydroxy-5-methyl-3-{[4-(5-phenyl-1,2,4-oxadiazol-3-yl)piperazin-1-yl]-carbonyl}hexanamide] | 4.8 | > 5000 | 6 | 41 | – | – | – | –
CC(C)C[C@H](C(=O)N1CCN(c2cc(C(F)(F)F)ccn2)C[C@H]1C)[C@H](O)C(=O)NO [Example 3, (2S,3S)-N,2-dihydroxy-5-methyl-3-({(2R)-2-methyl-4-[4-(trifluoromethyl)pyridin-2-yl]piperazin-1-yl}carbonyl)hexanamide] | 42 | > 5000 | 31 | 285 | – | – | – | –
CCOc1ccc(CCC[C@@H](C(=O)N2CCC(Nc3ccc(O)cc3)CC2)[C@H](O)C(=O)NO)cc1 [Example 46, (2S,3R)-6-(4-ethoxyphenyl)-N,2-dihydroxy-3-({4-[(4-hydroxyphenyl)amino]piperidin-1-yl}carbonyl)hexanamide] | – | – | – | – | 179 | > 5000 | 34 | 133
CC(C)C[C@H](C(=O)N1CCN(c2ccccn2)CC1)[C@H](O)C(=O)NO [Example 1, (2S,3S)-N,2-dihydroxy-5-methyl-3-{[4-(2-pyridinyl)-1-piperazinyl]carbonyl}hexanamide] | 3 | 418 | 4 | 5 | – | – | – | –
CCOc1ccc(CCCC(C(=O)N2CCN(c3ccccc3F)C[C@H]2C)[C@H](O)C(=O)NO)cc1 (mixture of isomers) [Example 9, (2S,3S)-6-(4-ethoxyphenyl)-3-{[(2R)-4-(2-fluorophenyl)-2-methylpiperazin-1-yl]carbonyl}-N,2-dihydroxyhexanamide] | 136 | > 5000 | 33 | 233 | – | – | – | –

Results, then the compound that gave them:

IC50 (gelatinase A (MMP-2); [2]) [nM] | IC50 (collagenase (MMP-1); [2]) [nM] | IC50 (metalloelastase (MMP-12); [2]) [nM] | IC50 [1, 2] [nM] | IC50 (gelatinase A (MMP-2); [3]) [nM] | IC50 (collagenase (MMP-1); [3]) [nM] | IC50 (metalloelastase (MMP-12); [3]) [nM] | IC50 [1, 3] [nM] | SMILES
38 | > 5000 | 7 | 194 | – | – | – | – | O=C(NO)[C@H](O)[C@H](CCOCc1ccccc1)C(=O)N1CCN(c2ccc(-c3ccccc3)cc2)CC1 [Example 58, 3-[(4-biphenyl-4-ylpiperazin-1-yl)carbonyl]-3,4-dideoxy-1-(hydroxyamino)-5-O-(phenylmethyl)-L-threo-pentose]
89 | > 5000 | 4 | 585 | – | – | – | – | COc1ccc(N2CCN(C(=O)[C@@H](CC(C)C)[C@@H](O)C(=O)NO)CC2)cc1 [Example 14, (2R,3S)-N,2-dihydroxy-3-{[4-(4-methoxyphenyl)piperazin-1-yl]carbonyl}-5-methylhexanamide]
17 | 876 | 103 | 7 | – | – | – | – | CC(C)C[C@H](C(=O)N1CCN(c2nc(-c3ccccc3)ns2)CC1)[C@H](O)C(=O)NO [Example 2, (2S,3S)-N,2-dihydroxy-5-methyl-3-{[4-(3-phenyl-1,2,4-thiadiazol-5-yl)-1-piperazinyl]carbonyl}hexanamide]
